One assay relates to HCT116 cells. Kind of assay: Inhibitory effect against cancer cell proliferation (MTT). Format: cell-based, human. As to conditions: Homo sapiens, HCT-116; HCT116, MTT, 48 hours; read-out: IC50 (uM) @ HCT116. The procedure: The formazane crystals thus formed were dissolved using dimethyl sulfoxide (DMSO) and absorbance of the solution was measured at 560 nm. After culturing for 48 hours, […] synthesized in Examples was indicated as cell viability (%) according to each treated concentration.

The next assay has as its system AMPKa [pT172]. Kind of assay: AMPKa activation [pT172] in MCF7 cell. Format: cell-based.

This note sets out measurements from patent publication US11572341B2, “Biguanide compound and use thereof” (ImmunoMet Therapeutics Inc., priority 2014, dated 2023).

Structures can show the parent of a compound that is named as a salt.

A word on the IC50: it is the point on the concentration scale where inhibition reaches its midpoint. Consider `Cl.N=C(NCc1ccc(OC(F)(F)F)cc1)NC(=N)Nc1cccnc1` [Example 42, Hydrochloride], for which the half-inhibitory concentration (IC50) with HCT116 cells worked out at 23.7 µM.
`CC1(C)CC(=O)N=C(NC(=N)N)N1.Cl` [Example 152]: the “AMPKa activation [pT172] (Unit/ml) @ MCF7 cell” value (“AMPKa activation [pT172]” below) in the assay with AMPKa [pT172] (5 uM) is reported as 7.9 Unit/ml; in the assay with AMPKa [pT172] (10 uM) it was 8.1 Unit/ml; with AMPKa [pT172] (50 uM), 8.6 Unit/ml.
In the case of `Cl.N=C(NC1=NC(=O)CC(C2CC2)N1)N1CCCCC1` (stereo not shown) [Example 157, N-(6-cyclopropyl-4-oxo-1,4,5,6-tetrahydropyrimidin-2-yl)piperidin-1-carboximidamide Hydrochloride], the results for the “AMPKa activation [pT172]” value in the assay on AMPKa [pT172] (5 uM), in the assay on AMPKa [pT172] (10 uM) and in the assay with AMPKa [pT172] (50 uM) were 4.17 Unit/ml, 2.68 Unit/ml and 2.00 Unit/ml, respectively.
With `CCOC1CCN(C(=N)NC(=N)Nc2cccc(OC(F)(F)F)c2)CC1.Cl` [Example 25, N1-(4-ethoxy)piperidin-N5-3-trifluoromethoxy)phenyl Biguanide Hydrochloride], in the assay on HCT116 cells, the IC50 was 8.4 µM.
As to `CN1CCN(C(=N)NC(=N)Nc2ccc(F)c(F)c2)CC1.Cl` [Example 38], the “AMPKa activation [pT172]” value amounted to 5.9 Unit/ml in the assay on AMPKa [pT172] (5 uM), 5.1 Unit/ml in the assay on AMPKa [pT172] (10 uM) and 6.4 Unit/ml with AMPKa [pT172] (50 uM).
On to `CC1CNC(NC(=N)N)=NC1=O.Cl` (stereo not shown) [Example 160, 1-(5-methyl-4-oxo-1,4,6-tetrahydropyrimidin-3-yl)guanidine Hydrochloride], for which the “AMPKa activation [pT172]” value with AMPKa [pT172] (5 uM) is listed as 2.51 Unit/ml; in the assay with AMPKa [pT172] (10 uM) it was 2.65 Unit/ml; in the assay with AMPKa [pT172] (50 uM), 2.84 Unit/ml.
Take `Cl.N=C(N)NC(=N)Nc1ccc(OC(F)(F)F)cc1` [Example 140, Hydrochloride]: the concentration for half-maximal inhibition (IC50) with HCT116 cells is 100 µM.
Same read-out and setting: the value for `C/N=C(\NCCc1ccccc1)NC(=N)N(C)C` [Example 97, N1-phenethyl-N2-methyl-N5,N5-dimethyl Biguanide Hydrochloride] was 7.5 µM.
Regarding `CN1CCN(C(=N)NC(=N)NCc2cccc(Cl)c2)CC1.Cl` [Example 35], the “AMPKa activation [pT172]” value in the assay on AMPKa [pT172] (5 uM) was determined as 5.0 Unit/ml; in the assay with AMPKa [pT172] (10 uM) it was 4.2 Unit/ml; with AMPKa [pT172] (50 uM) it was 3.4 Unit/ml.
As for `CC1CN=C(NC(=N)N2CCCCC2)NC1.Cl` (stereo not shown) [Example 158, N-(5-methyl-1,4,5,6-tetrahydropyrimidin-2-yl)piperidin-1-carboximidamide Hydrochloride], the “AMPKa activation [pT172]” value in the assay on AMPKa [pT172] (5 uM) is 3.11 Unit/ml; in the assay on AMPKa [pT172] (10 uM), 2.49 Unit/ml; with AMPKa [pT172] (50 uM) it was 3.75 Unit/ml.
With `CCC1CCNC(NC(=N)N2CCCCC2)=N1.Cl` (stereo not shown) [Example 165, N-(4-ethyl-1,4,5,6-tetrahydropyrimidin-2-)piperidin-1-carboximidamide Hydrochloride], the “AMPKa activation [pT172]” value in the assay on AMPKa [pT172] (5 uM) is listed as 3.80 Unit/ml; with AMPKa [pT172] (10 uM) it was 4.36 Unit/ml; with AMPKa [pT172] (50 uM), 9.16 Unit/ml.
Take `Cl.N=C(NC1=NCCCN1)N1CCCCC1` [Example 153, N-(1,4,5,6-tetrahydropyrimidin-2-yl)piperidin 1-carboximidamide Hydrochloride]: the “AMPKa activation [pT172]” value is recorded as 8.0 Unit/ml in the assay on AMPKa [pT172] (5 uM), 6.8 Unit/ml with AMPKa [pT172] (10 uM) and 6.3 Unit/ml with AMPKa [pT172] (50 uM).
Regarding `Cl.N=C(NCc1ccc2c(c1)OCO2)NC(=N)N1CCCCC1` [Example 9, N1-piperidin-N5-(benzo[d][1,3]dioxol-5-yl)methyl Biguanide Hydrochloride], the “AMPKa activation [pT172]” value in the assay on AMPKa [pT172] (50 uM) was found to be 16.3 Unit/ml.
Turning to `Cl.N=C(NCCc1ccc(Cl)cc1)NC(=N)N1CCCCC1` [Example 13], in the assay on AMPKa [pT172] (50 uM), the “AMPKa activation [pT172]” value is 7.0 Unit/ml.
As for `CN(C)C(=N)NC(=N)NCc1ccc2c(c1)OCO2.Cl` [Example 4, N1,N1-dimethyl-N5-(benzo[d][1,3]dioxol-5-yl)methyl Biguanide Hydrochloride], in the assay with AMPKa [pT172] (50 uM), the “AMPKa activation [pT172]” value was 3.8 Unit/ml.
In the case of `CC1CC(=O)N=C(NC(=N)N)N1.Cl` (stereo not shown) [Example 164], the entries for the “AMPKa activation [pT172]” value in the assay on AMPKa [pT172] (5 uM), with AMPKa [pT172] (10 uM) and in the assay on AMPKa [pT172] (50 uM) were 2.89 Unit/ml, 3.43 Unit/ml and 2.77 Unit/ml, respectively.
As to `CCCCN/C(=N\C1CCCCCC1)NC(=N)N.Cl` [Example 92, N1-butyl-N2-cycloheptyl Biguanide Hydrochloride], the “AMPKa activation [pT172]” value in the assay with AMPKa [pT172] (50 uM) is recorded as 21.1 Unit/ml.
`CCOC1CCN(C(=N)NC(=N)Nc2cccc(OC(F)(F)F)c2)CC1.Cl` [Example 25]: the results for the “AMPKa activation [pT172]” value with AMPKa [pT172] (5 uM), in the assay with AMPKa [pT172] (10 uM) and with AMPKa [pT172] (50 uM) were 5.8 Unit/ml, 7.0 Unit/ml and “cell death”, respectively.
`Cl.N=C(NCc1ccc(OC(F)(F)F)cc1)NC(=N)Nc1cccnc1` [Example 42]: the “AMPKa activation [pT172]” value in the assay with AMPKa [pT172] (5 uM) is 4.3 Unit/ml; with AMPKa [pT172] (10 uM), 8.7 Unit/ml; in the assay on AMPKa [pT172] (50 uM), 19.1 Unit/ml.
Consider `CC1CCNC(NC(=N)N2CCCCC2)=N1.Cl` (stereo not shown) [Example 162, N-(4-methyl-1,4,5,6-tetrahydropyrimidin-2-yl)piperidin-1-carboximidamide Hydrochloride], for which the “AMPKa activation [pT172]” value came out at 4.41 Unit/ml in the assay on AMPKa [pT172] (5 uM), 4.04 Unit/ml with AMPKa [pT172] (10 uM) and 7.34 Unit/ml in the assay with AMPKa [pT172] (50 uM).
Take `CC1CCN(C(=N)NC(=N)Nc2ccc(Cl)cc2)CC1.Cl` [Example 55]: the results for the “AMPKa activation [pT172]” value in the assay with AMPKa [pT172] (5 uM), in the assay on AMPKa [pT172] (10 uM) and in the assay on AMPKa [pT172] (50 uM) were 3.5 Unit/ml, 5.3 Unit/ml and “cell death”, respectively.
As for `CC(C)C1CC(=O)N=C(NC(=N)N2CCCCC2)N1.Cl` (stereo not shown) [Example 159, N-(6-isopropyl-4-oxo-1,4,5,6-tetrahydropyrimidin-2-yl)piperidin-1-carboximidamide Hydrochloride], the “AMPKa activation [pT172]” value is 2.17 Unit/ml with AMPKa [pT172] (5 uM), 2.35 Unit/ml with AMPKa [pT172] (10 uM) and 3.02 Unit/ml in the assay with AMPKa [pT172] (50 uM).
The corresponding values for `CCCC1CC(=O)N=C(NC(=N)N2CCCCC2)N1.Cl` (stereo not shown) [Example 163, N-(6-propyl-4-oxo-1,4,5,6-tetrahydropyrimidin-2-yl)piperidin-1-carboximidamide Hydrochloride] are 4.07 Unit/ml, 3.76 Unit/ml and 4.48 Unit/ml.
As to `CN(C)C(=N)NC(=N)N1CCCCC1.Cl` [Example 1, N1,N1-dimethyl-N5-piperidine Biguanide Hydrochloride], in the assay with AMPKa [pT172] (50 uM), the “AMPKa activation [pT172]” value was determined as 4.6 Unit/ml.
In the case of `CN(C)C(=N)NC(=N)N(C)Cc1cccc2ccccc12.Cl` [Example 3, N1,N1-dimethyl-N5-methyl-N5-1-(naphthalen-1-yl)methyl Biguanide Hydrochloride], the “AMPKa activation [pT172]” value with AMPKa [pT172] (50 uM) was determined as 6.2 Unit/ml.
Take `Cl.N=C(N)NC(=N)Nc1ccc(OC(F)(F)F)cc1` [Example 140]: the “AMPKa activation [pT172]” value with AMPKa [pT172] (5 uM) was found to be 6.2 Unit/ml; in the assay on AMPKa [pT172] (10 uM), 6.6 Unit/ml; in the assay with AMPKa [pT172] (50 uM) it was 8.7 Unit/ml.
In the case of `Cl.N=C(NCCc1ccccc1Cl)NC(=N)N1CCCCC1` [Example 14], the “AMPKa activation [pT172]” value with AMPKa [pT172] (50 uM) worked out at 11.0 Unit/ml.
In the case of `CC1(C)CC(=O)N=C(NC(=N)N2CCCCC2)N1.Cl` [Example 151, N-(6,6-dimethyl-4-oxo-1,4,5,6-tetrahydropyrimidin-2-yl)piperidin-1-carboximidamide Hydrochloride], the “AMPKa activation [pT172]” value in the assay on AMPKa [pT172] (5 uM) is 9.4 Unit/ml; in the assay on AMPKa [pT172] (10 uM), 7.7 Unit/ml; with AMPKa [pT172] (50 uM), 11.2 Unit/ml.
With `Cl.N=C(NC(=N)N1CCCC1)N1CCCCC1` [Example 5, N1-piperidin-N5-pyrrolidine Biguanide Hydrochloride], the “AMPKa activation [pT172]” value in the assay with AMPKa [pT172] (50 uM) came to 5.8 Unit/ml.
The same measure, in the same setting: the value for `CN(C)/C(=N\Cc1ccc(F)cc1)NC(=N)N1CCCCC1.Cl` [Example 93, N1,N1-dimethyl-N2-(4-fluoro)benzyl-N5-piperidine Biguanide Hydrochloride] was 6.6 Unit/ml; that for `CNC(=N)NC(=N)N.Cl` [Example 108, N1-methyl Biguanide Hydrochloride] was 3.9 Unit/ml.
For `CC(C)CC1CC(=O)N=C(NC(=N)N2CCCCC2)N1.Cl` (stereo not shown) [Example 161, N-(6-isobutyl-4-oxo-1,4,5,6-tetrahydropyrimidin-2-yl)piperidin-1-carboximidamide Hydrochloride], the “AMPKa activation [pT172]” value with AMPKa [pT172] (5 uM) worked out at 3.03 Unit/ml; in the assay with AMPKa [pT172] (10 uM) it was 2.73 Unit/ml; in the assay with AMPKa [pT172] (50 uM), 4.06 Unit/ml.
`Cl.N=C(NC(=N)N1CCCCC1)N1CCCCC1` [Example 2, N1-piperidin-N5-piperidine Biguanide Hydrochloride]: the “AMPKa activation [pT172]” value in the assay on AMPKa [pT172] (50 uM) came to 4.9 Unit/ml.
Take `CN1CCN(C(=N)NC(=N)Nc2ccc(Cl)cc2)CC1.Cl` [Example 27]: the entries for the “AMPKa activation [pT172]” value with AMPKa [pT172] (5 uM), in the assay with AMPKa [pT172] (10 uM) and in the assay on AMPKa [pT172] (50 uM) were 9.8 Unit/ml, 8.7 Unit/ml and 14.3 Unit/ml, respectively.
For `Cl.N=C(NC(=N)N1CCCC1)Nc1ccc(Br)cc1` [Example 72], the figures for the “AMPKa activation [pT172]” value with AMPKa [pT172] (5 uM), with AMPKa [pT172] (10 uM) and in the assay on AMPKa [pT172] (50 uM) were 5.4 Unit/ml, 6.6 Unit/ml and 19.1 Unit/ml, respectively.
As to `Cl.N=C(N)NC(=N)N1CCOCC1` [Example 118], in the assay with AMPKa [pT172] (50 uM), the “AMPKa activation [pT172]” value is 6.0 Unit/ml.
